The text below walks through data of patent publication US7858621B2 (Amorepacific Corporation, priority 2006, dated 2010).

For the assay, the target named is T1, vanilloid receptor (Rattus norvegicus, UniProt O35433).
T1 construct: DRG nerve cells from the primary culture of 2 days were equilibrated; endogenous in cells; host or cells: primary culture of dorsal root ganglion neurons from neonatal SD rats
T1 sequence (O35433 whole entry): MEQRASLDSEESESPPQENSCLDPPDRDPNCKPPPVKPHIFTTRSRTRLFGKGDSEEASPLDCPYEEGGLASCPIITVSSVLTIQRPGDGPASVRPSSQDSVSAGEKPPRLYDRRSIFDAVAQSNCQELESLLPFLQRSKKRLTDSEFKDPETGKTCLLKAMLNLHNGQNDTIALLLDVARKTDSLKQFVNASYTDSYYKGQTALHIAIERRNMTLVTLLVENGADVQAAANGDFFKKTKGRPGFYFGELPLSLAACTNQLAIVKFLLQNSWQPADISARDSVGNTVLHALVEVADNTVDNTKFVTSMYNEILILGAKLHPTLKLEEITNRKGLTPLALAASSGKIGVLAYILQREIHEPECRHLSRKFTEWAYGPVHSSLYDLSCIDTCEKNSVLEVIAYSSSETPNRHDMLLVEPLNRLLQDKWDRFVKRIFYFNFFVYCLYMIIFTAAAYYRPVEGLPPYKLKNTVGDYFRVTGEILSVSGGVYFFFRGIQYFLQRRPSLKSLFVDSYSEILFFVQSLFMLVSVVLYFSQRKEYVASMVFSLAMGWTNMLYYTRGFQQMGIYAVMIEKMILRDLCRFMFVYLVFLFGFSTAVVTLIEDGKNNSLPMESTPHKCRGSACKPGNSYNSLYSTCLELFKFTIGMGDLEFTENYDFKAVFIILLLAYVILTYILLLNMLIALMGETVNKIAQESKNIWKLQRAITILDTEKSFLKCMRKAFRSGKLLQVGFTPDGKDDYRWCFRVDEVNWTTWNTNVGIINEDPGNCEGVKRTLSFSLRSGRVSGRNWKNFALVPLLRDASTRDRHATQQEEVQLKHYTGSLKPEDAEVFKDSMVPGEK
Kind of assay: 45Ca influx test in cultured neonatal rat DRG neurons, inhibition of capsaicin response. The format is cell-based. As to conditions: neonatal rat DRG neurons, capsaicin 0.5 μM, 45Ca influx; read-out: Antagonist Calcium Uptake Test (IC50). Summed up: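 45Ca influx measured by scintillation counting of SDS-eluted neurons after 10 min at room temperature with test compound, 0.5 μM capsaicin (final) and 10 μCi/ml 45Ca in Ca/Mg-free HEPES-HBSS pH 7.4. Cells: primary DRG neurons from newborn SD rats, cultured 2 days with NGF and Ara-C.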
One may read the IC50 as the concentration that inhibits the measured activity by half. Consider `C#Cc1cc(CNC(=O)/C=C/c2ccc(C(F)(F)F)nc2SCC)cc(F)c1NS(C)(=O)=O` [Example 171, 3-(2-Ethylthio-6-trifluoromethyl-pyridin-3-yl)-N-(3-ethynyl-5-fluoro-4-methanesulfonylamino-benzyl)-acrylamide], for which the IC50 worked out at 180 nM.
The result for `Cc1cc(CNC(=O)/C=C/c2ccc(C(F)(F)F)nc2CCc2ccccc2)ccc1NS(C)(=O)=O` [Example 172, N-(4-Methanesulfonylamino-3-methyl-benzyl)-3-(2-phenethyl-6-trifluoromethyl-pyridin-3-yl)-acrylamide] reads 69 nM; that for `Cc1cc(CNC(=O)/C=C/c2ccc(C(F)(F)F)nc2CCc2ccccc2)cc(F)c1NS(C)(=O)=O` [Example 173, N-(3-Fluoro-4-methanesulfonylamino-5-methyl-benzyl)-3-(2-phenethyl-6-trifluoromethyl-pyridin-3-yl)-acrylamide], 200 nM.
Turning to `Cc1cc(CNC(=O)/C=C/c2ccc(C(F)(F)F)nc2CC(C)C)ccc1NS(C)(=O)=O` [Example 174, 3-(2-Isobutyl-6-trifluoromethyl-pyridin-3-yl)-N-(4-methanesulfonylamino-3-methyl-benzyl)-acrylamide], the IC50 was 70 nM.
For the molecule `CC(C)Cc1nc(C(F)(F)F)ccc1/C=C/C(=O)N[C@H](C)c1ccc(NS(C)(=O)=O)c(F)c1` [Example 175, (R)—N-[1-(3-Fluoro-4-methanesulfonylamino-phenyl)-ethyl]-3-(2-isobutyl-6-trifluoromethyl-pyridin-3-yl)-acrylamide], the IC50 turned out to be 24 nM.
The result for `CCC(C)Nc1nc(C(F)(F)F)ccc1/C=C/C(=O)NCc1ccc(NS(C)(=O)=O)c(C)c1` (centres unmarked) [Example 176, 3-(2-sec-Butylamino-6-trifluoromethyl-pyridin-3-yl)-N-(4-methanesulfonylamino-3-methyl-benzyl)-acrylamide] reads 57 nM; that for `C#Cc1cc(CNC(=O)/C=C/c2ccc(C(F)(F)F)nc2SC(C)C)cc(F)c1NS(C)(=O)=O` [Example 177, N-(3-Ethynyl-5-fluoro-4-methanesulfonylamino-benzyl)-3-(2-isopropylthio-6-trifluoromethyl-pyridin-3-yl)-acrylamide], 200 nM.
The result for `CC(C)Sc1nc(C(F)(F)F)ccc1/C=C/C(=O)NCc1ccc(NS(C)(=O)=O)c(F)c1` [Example 178, N-(3-Fluoro-4-methanesulfonylamino-benzyl)-3-(2-isopropylthio-6-trifluoromethyl-pyridin-3-yl)-acrylamide] reads 920 nM; that for `CS(=O)(=O)Nc1ccc(CNC(=O)/C=C/c2ccc(C(F)(F)F)nc2-c2cccc(F)c2)cc1F` [Example 179, N-(3-Fluoro-4-methanesulfonylamino-benzyl)-3-[2-(3-fluoro-phenyl)-6-trifluoromethyl-pyridin-3-yl]-acrylamide], 780 nM; that for `Cc1cc(CNC(=O)/C=C/c2ccc(C(F)(F)F)nc2-c2cccc(F)c2)cc(F)c1NS(C)(=O)=O` [Example 180, N-(3-Fluoro-4-methanesulfonylamino-5-methyl-benzyl)-3-[2-(3-fluoro-phenyl)-6-trifluoromethyl-pyridin-3-yl]-acrylamide], 460 nM.
Regarding `C[C@@H](NC(=O)/C=C/c1ccc(C(F)(F)F)nc1-c1cccc(F)c1)c1ccc(NS(C)(=O)=O)c(F)c1` [Example 181, (R)—N-[1-(3-Fluoro-4-methanesulfonylamino-phenyl)-ethyl]-3-[2-(3-fluoro-phenyl)-6-trifluoromethyl-pyridin-3-yl]-acrylamide], the IC50 worked out at 270 nM.
As for `Cc1cc(CNC(=O)/C=C/c2ccc(C(F)(F)F)nc2-c2cccc(F)c2)ccc1NS(C)(=O)=O` [Example 182, 3-[2-(3-Fluoro-phenyl)-6-trifluoromethyl-pyridin-3-yl]-N-(4-methanesulfonylamino-3-methyl-benzyl)-acrylamide], the figure is 400 nM.
The result for `C[C@@H](NC(=O)/C=C/c1ccc(C(F)(F)F)nc1N1CCCCC1)c1ccc(NS(C)(=O)=O)c(F)c1` [Example 183, (R)—N-[1-(3-Fluoro-4-methanesulfonylamino-phenyl)-ethyl]-3-(2-piperid-1-yl-6-trifluoromethyl-pyridin-3-yl)-acrylamide] reads 220 nM; that for `Cc1cc(CNC(=O)/C=C/c2ccc(C(F)(F)F)nc2N2CCCCC2)ccc1NS(C)(=O)=O` [Example 184, N-(4-Methanesulfonylamino-3-methyl-benzyl)-3-(2-piperid-1-yl-6-trifluoromethyl-pyridin-3-yl)-acrylamide], 230 nM; that for `C#Cc1cc(CNC(=O)/C=C/c2ccc(C(F)(F)F)nc2SCCC)cc(F)c1NS(C)(=O)=O` [Example 185, N-(3-Ethynyl-5-fluoro-4-methanesulfonylamino-benzyl)-3-(2-propylthio-6-trifluoromethyl-pyridin-3-yl)-acrylamide], 280 nM.
The result for `CCCSc1nc(C(F)(F)F)ccc1/C=C/C(=O)NCc1ccc(NS(C)(=O)=O)c(C)c1` [Example 186, N-(4-Methanesulfonylamino-3-methyl-benzyl)-3-(2-propylthio-6-trifluoromethyl-pyridin-3-yl)-acrylamide] reads 510 nM; that for `CCCCNc1nc(C(F)(F)F)ccc1/C=C/C(=O)NCc1ccc(NS(C)(=O)=O)c(C)c1` [Example 187, N-(4-Methanesulfonylamino-3-methyl-benzyl)-3-(2-butylamino-6-trifluoromethyl-pyridin-3-yl)-acrylamide], 75 nM; that for `CS(=O)(=O)Nc1c(F)cc(CNC(=O)/C=C/c2ccc(C(F)(F)F)nc2CCc2ccccc2)cc1C(F)(F)F` [Example 189, N-(3-Fluoro-4-methanesulfonylamino-5-trifluoromethyl-benzyl)-3-(2-phenethyl-6-trifluoromethyl-pyridin-3-yl)-acrylamide], 400 nM.
Turning to `C#Cc1cc(CNC(=O)/C=C/c2ccc(C(F)(F)F)nc2C#CCN(CC)CC)cc(F)c1NS(C)(=O)=O` [Example 190], the IC50 was found to be 2300 nM.
Regarding `Cc1cc(CNC(=O)/C=C/c2ccc(C(F)(F)F)nc2NCc2ccccc2)ccc1NS(C)(=O)=O` [Example 191, 3-(2-Benzylamino-6-trifluoromethyl-pyridin-3-yl)-N-(4-methanesulfonylamino-3-methyl-benzyl)-acrylamide], the IC50 was determined as 220 nM.
The result for `CCCCc1nc(C(F)(F)F)ccc1/C=C/C(=O)NCc1cc(C)c(NS(C)(=O)=O)c(F)c1` [Example 192, 3-(2-Butyl-6-trifluoromethyl-pyridin-3-yl)-N-(3-fluoro-4-methanesulfonylamino-5-methyl-benzyl)-acrylamide] reads 90 nM; that for `CCCCc1nc(C(F)(F)F)ccc1/C=C/C(=O)N[C@H](C)c1ccc(NS(C)(=O)=O)c(F)c1` [Example 193, (R)-3-(2-Butyl-6-trifluoromethyl-pyridin-3-yl)-N-[1-(3-fluoro-4-methanesulfonylamino-phenyl)-ethyl]-acrylamide], 42 nM.
Take `CCCCc1nc(C(F)(F)F)ccc1/C=C/C(=O)NCc1ccc(NS(C)(=O)=O)c(C)c1` [Example 194, 3-(2-Butyl-6-trifluoromethyl-pyridin-3-yl)-N-(4-methanesulfonylamino-3-methyl-benzyl)-acrylamide]: the IC50 is 76 nM.
